In PMC6934975, “Natural Alpha-Glucosidase Inhibitors Rapid Fishing from Cyperus Rotundus Using Immobilized Enzyme Affinity Screening Combined with UHPLC-QTOF MS” (Iranian Journal of Pharmaceutical Research : IJPR, 2019):
Read-outs that look alike come from different tables or passages of the source.

Assays:
[1] = molecular target: T1, α-Glucosidase (E.C. 3.2.1.20) from Saccharomyces cerevisiae (Saccharomyces cerevisiae, UniProt P53341); assay: α-Glucosidase inhibitory activity assay in vitro (PNPG substrate, absorbance at 405 nm); assay type: biochemical
T1 construct: purchased Sigma-Aldrich
T1 sequence (P53341 whole entry): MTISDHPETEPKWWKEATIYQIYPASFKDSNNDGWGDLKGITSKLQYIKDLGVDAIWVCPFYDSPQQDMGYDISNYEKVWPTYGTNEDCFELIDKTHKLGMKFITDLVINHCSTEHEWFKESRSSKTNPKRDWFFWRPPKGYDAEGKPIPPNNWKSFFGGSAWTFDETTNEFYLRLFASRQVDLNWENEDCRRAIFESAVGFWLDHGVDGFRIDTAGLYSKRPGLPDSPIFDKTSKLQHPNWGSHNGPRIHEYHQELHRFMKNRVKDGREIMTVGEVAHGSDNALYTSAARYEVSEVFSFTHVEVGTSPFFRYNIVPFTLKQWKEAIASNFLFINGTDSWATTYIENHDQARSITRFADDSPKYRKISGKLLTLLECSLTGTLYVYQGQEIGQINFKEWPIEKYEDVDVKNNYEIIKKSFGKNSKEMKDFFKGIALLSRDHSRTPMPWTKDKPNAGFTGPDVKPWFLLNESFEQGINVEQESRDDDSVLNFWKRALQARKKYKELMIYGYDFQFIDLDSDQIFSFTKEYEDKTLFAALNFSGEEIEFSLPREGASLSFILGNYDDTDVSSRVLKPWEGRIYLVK
From the text: Agilent 1290 Infinity LC-6520 Accurate-Mass QTOF-MS (Agilent Technologies, PaloAlto, CA, USA); Bruker DRX-400 (400MHz for ^1H and 100MHz for ^13C) spectrometer (Bruker, Rheinstetten, Germany); α-Glucosidase (E.C. 3.2.1.20) from Saccharomyces cerevisiae, p-nitrophenyl a-D-glucopyranoside (PNPG) and glutathione (GSH) were purchased from Sigma-Aldrich (St Louis, MO, USA). CNBr-activated Sepharose^TM 4B was purchased from Phamacia Biotech AB (Uppsala, Sweden). Distilled water was purified by a Milli-Q water purification apparatus (Millipore, Bedford, MA). All other reagents were of analytical grade.
Each of the dried ground powder (3 g) was extracted in 30 mL of 80% aqueous methanol by ultrasonic extraction for 60 min at room temperature. After centrifugation at 5000 rpm for 5 min, the combined extract was evaporated under reduced pressure to dryness. To each herb extract, DMSO was added to get 5 mg/mL solution, respectively.
The α-glucosidase inhibitory activity was determined spectrophotometrically on 96-well microplate reader. In brief, to a total of 310 μL of reaction mixture containing 265 μL of 67 mM phosphate buffer (pH 6.8), 10 μL of 3 mM glutathione, 25 μL of 10 mM p-nitrophenyl-α-D-glucopyranoside and 10 μL of investigated compounds in the wells was added 10 μL of 0.3 U/mL α-glucosidase and mixed. All the reagents used in this assay were dissolved in the same phosphate buffer (67 mM, pH 6.8). After incubation for 10 min at 37 °C, the reaction was stopped by adding […] of 0.1 M Na2CO3 solution. Then the absorbance of sample (AS) at 405 nm was recorded (SunriseTM microplate absorbance reader, Tecan, Austria). The control was the same mixture except for the investigated sample replaced by the phosphate buffer. The sample blank and control blank were the same mixtures as sample and control, respectively, except α-glucosidase was instead with phosphate buffer, respectively.
The α-glucosidase inhibition activity (%) of test sample could be calculated as
Inhibition activity (%) = […]
(§1) where AS, ASB, AC and ACB are the absorbance of sample, sample blank, control and control blank, respectively. The measurement was performed in triplicates. For kinetic analysis of AGH inhibition, a certain concentration of 0.6 U/mL AGH and different contents of sample compounds were incubated with a series of concentrations of substrate. The inhibitory kinetics of the investigated compounds was analyzed using the Lineweaver-Burk plot, double-reciprocal plot of the substrate concentration and velocity.

[2] = molecular target: T1, α-Glucosidase (E.C. 3.2.1.20) from Saccharomyces cerevisiae; assay: Kinetic analysis of AGH inhibition (Lineweaver-Burk plot); assay type: biochemical
Experimental: as §1

[3] = molecular target: T2, immobilized α-glucosidase (Saccharomyces cerevisiae, UniProt P53341); assay: AGH inhibitors screening by immobilized AGH affinity fishing with UHPLC-QTOF-MS; assay type: binding; conditions: C. rotundus extract; parallel control with blank sepharose supports
T2 construct: purchased Sigma-Aldrich
T2 sequence (P53341 whole entry): as above
Experimental: a-Glucosidase (0.20 mg) was dissolved in coupling buffer (0.1 M NaHCO3 and 0.5 M NaCl at pH 8.3) at a concentration of 2.0 mg protein/mL. The protein solution was mixed with CNBr-activated Sepharose^TM 4B gel at room temperature in a ratio of […] protein solution to 5 mg Sepharose^TM powder, which would swell to about […] of wet gel. The gel slurry was rotated at room temperature for 1 h to ensure the enzyme bound to the beads. After protein coupling, the resident reactive sites on the gel were blocked by reacting with 0.01 M Tris-HCl buffer at pH 8.0 for 1 h at room temperature. […] Control supports were prepared in the same manner but with no AGH being added during the immobilization step.
200 mg ground C. rotundus powder was extracted in 20 mL of 80% aqueous methanol by ultrasonic extraction for 30 min. The extract was filtered and freeze-dried, then redissolved in 10 mL affinity buffer (67 mM KH2PO4 (containing 5% methanol) at pH 6.8) and filtered through a 0.45 μm membrane as the tested extract sample.
C. rotundus extracts (400 mL) was mixed with […] immobilized AGH gel and gently stirred at 37 °C for 20 min. After incubation with the extracts, the gel were washed with 400 mL affinity buffer (67 mM KH2PO4 (containing 5% methanol) at pH 6.8) four times to remove any unbound components and then treated with […] desorbed solution (50% methanol aqueous solution at pH 3.3) to release the captured potential inhibitors of AGH. The released components were collected and concentrated to 10 mL under N2 atmosphere at 40 °C, then applied to UPLC-QTOF-MS for peak identification. Elution from the control supports was collected and analyzed in the same manner.
UHPLC-MS was performed on an Agilent 1290 Infinity LC-6520 Accurate-Mass QTOF-MS (Agilent Corporation, CA, USA). Analytes eluted from the AGH coupling supports and control supports were separated on a poroshell 120 EC-C18 column (3.0 × 50 mm, 2.7 µm , Agilent Corporation, MA, USA). The solvent system consisted of solvent A […] and solvent B (0.5% formic acid in water, v/v). The solvent A content of the mobile phase was gradient increased from 5% to 100% linearly in 20 min.
The flow rate was set at 0.4 mL/min. Mass analysis was performed in negative ESI ion mode. The operating parameters were as follows: drying gas (N2) flow rate, 8 L/min; drying gas temperature, 325 °C; nebulizer, 30 psig; capillary, 3500 V; skimmer, 65 V; fragmentor voltage, 100 V. The mass range was set at m/z 100–2000. The system was operated under Agilent MassHunter workstation acquisition software, version B.02.01 (Agilent Corporation, MA, USA).
The extract of C. rotundus was used as the real biological sample to carry out the affinity screening procedure, just as shown in Scheme 1. Firstly, α-glucosidase was immobilized on CNBr-activated sepharose beads, while blank supports were set as control. Secondly, immobilized α-glucosidase was incubated with 300 µL of C.
rotundus extracts to launch the affinity capture procedure. The highly-affinity components in C. rotundus could be specifically captured by the enzyme and fished out from the complex matrix. Thirdly, to characterize the captured compounds, the binders were released from immobilized α-glucosidase and subsequently separated and analyzed by UHPLC-QTOF MS. It was worth mentioning that not all the molecules retained on immobilized enzyme were of highly-affinity. Some of them might be non-specifically absorbed on the blank sepharose support. To eliminate this false positive, a parallel control was carried out throughout the whole screening procedure. By subtracting the signal of false positive, the highly-affinity ingredients could be recognized correctly, and these ingredients might be potent natural AGHI in C. rotundus.

α-glucosidase = system: α-glucosidase; set-up: method as in PMID 24044731; conditions: cited from earlier work

Structure (SMILES) | IC50 [1] [µM] | α-glucosidase inhibitory activity in words [1] | Ki [2] [µM] | alpha-glucosidase inhibitory kinetic mode ([2]; Lineweaver-Burk plots) | Affinity capture result on immobilized α-glucosidase after subtracting the blank support signal [3] | α-glucosidase inhibitors in C. rotundus (reported) (α-glucosidase) | IC50 ([1]; Table 2, read-out: alpha-glucosidase inhibitory IC50) [µM] | Ki ([2]; Lineweaver-Burk plots, Table 2, read-out: alpha-glucosidase inhibitory Ki) [µM]
Oc1ccc(/C=C/c2c3c(cc4c2[C@H](c2cc(O)cc(O)c2)[C@@H](c2ccc(O)c(O)c2)O4)O[C@H](c2ccc(O)c(O)c2)[C@H]3c2cc(O)cc(O)c2)cc1 [Cyperusphenol A (1), (E)-cyperusphenol A] | 1.43 ± 0.11 | potent natural AGHIs | 11.2 | Noncompetitive | highly-affinity binders | – | – | –
Oc1cc(O)cc(C2c3c(/C=C/c4ccc(O)c(O)c4)cc(O)cc3OC2c2ccc(O)c(O)c2)c1 (stereo not drawn) [Scirpusins B (4), Scirpusins B] | 13.3 ± 1.66 | – | 95.4 | Noncompetitive | highly-affinity binders | natural α-glucosidase inhibitors | – | –
Oc1ccc(/C=C/c2cc(O)cc3c2C(c2cc(O)cc(O)c2)C(c2ccc(O)c(O)c2)O3)cc1 (stereo not drawn) [Scirpusins A (5), Scirpusins A] | – | – | – | Noncompetitive | highly-affinity binders | natural α-glucosidase inhibitors | 21.4 ± 1.4 | 136
C[C@H]1O[C@H](O[C@H]2[C@H](O)[C@@H](O)[C@@H](O[C@H]3[C@H](O)[C@@H](O)C(O)O[C@@H]3CO)O[C@@H]2CO)[C@H](O)[C@@H](O)[C@@H]1N[C@H]1C=C(CO)[C@@H](O)[C@H](O)[C@H]1O (stereo partly drawn) [Acarbose (reference), Acarbose, reference compound] | – | – | – | competitive | – | – | – | –
Oc1cc2c3c(c1)C1c4c(cc(O)cc4C4c5c(cc(O)cc5C3C(c3ccc(O)c(O)c3)O2)OC4c2ccc(O)c(O)c2)OC1c1ccc(O)c(O)c1 (stereo not drawn) [Cyperusphenol D (3), Cyperusphenol D] | 1.18 ± 0.11 | potent natural AGHIs | 8.63 | Noncompetitive | highly-affinity binders | – | – | –
CC1=C2C(O)C3CC(O)C(C)C2(CC1O)C3(C)C (stereo not drawn) [sugetriol] | – | – | – | – | absorbed only on the support matrix | – | – | –
Oc1ccc(/C=C/c2c3c(cc4c2[C@@H](c2cc(O)cc(O)c2)[C@H](c2ccc(O)c(O)c2)O4)O[C@H](c2ccc(O)c(O)c2)[C@H]3c2cc(O)cc(O)c2)cc1 [Mesocyperusphenol A (2), mesocyperusphenol A] | 1.44 ± 0.17 | potent natural AGHIs | 10.7 | Noncompetitive | highly-affinity binders | – | – | –
